Organism: Rattus norvegicus
Assay: Open TG-GATES - Regimen: Single
Assay type: toxicity, organism-based, Sprague-Dawley
Parameters: regimen Single, gender Male, age 6 weeks
Conditions: in vivo, po, route gavage; for gamma-GTP / ALP / ALT / AST / BUN / CRE / Ca / DBIL / GLC / IP / K / LDH / Na / PL / RALB / TBIL / TC / TG / TP: tissue Plasma; for APTT / Bas / Eos / Fbg / Hb / Ht / Lym / MCH / MCHC / MCV / Mono / Neu / PT / Plat / RBC / Ret / WBC: tissue Blood; for KIDNEY_L / KIDNEY_R / KIDNEY_TOTAL: tissue Kidney

CSc1ccc2c(c1)N(CCC1CCCCN1C)c1ccccc1S2 (stereo unspecified) [THIORIDAZINE]
gamma-GTP (0 mg/kg, 24 h, dose level Control): 1.2 IU/L
TERMINAL_BW (10 mg/kg, 3 h, dose level Low): 216.5 g
APTT (10 mg/kg, 3 h, dose level Low): 16.2 s
Bas (10 mg/kg, 3 h, dose level Low): 0%
Eos (10 mg/kg, 3 h, dose level Low): 0.6%
Fbg (10 mg/kg, 3 h, dose level Low): 201 mg/dL
Hb (10 mg/kg, 3 h, dose level Low): 12.6 g/dL
Ht (10 mg/kg, 3 h, dose level Low): 37.5%
Lym (10 mg/kg, 3 h, dose level Low): 77%
MCH (10 mg/kg, 3 h, dose level Low): 22.5 pg
MCHC (10 mg/kg, 3 h, dose level Low): 33.6%
MCV (10 mg/kg, 3 h, dose level Low): 67.1 fL
Mono (10 mg/kg, 3 h, dose level Low): 9.8%
Neu (10 mg/kg, 3 h, dose level Low): 13%
PT (10 mg/kg, 3 h, dose level Low): 12.2 s
Plat (10 mg/kg, 3 h, dose level Low): 94.9 x10_4/uL
RBC (10 mg/kg, 3 h, dose level Low): 560.4 x10_4/ul
Ret (10 mg/kg, 3 h, dose level Low): 8%
WBC (10 mg/kg, 3 h, dose level Low): 87.7 x10_2/uL
KIDNEY_L (10 mg/kg, 3 h, dose level Low): 1 g
KIDNEY_R (10 mg/kg, 3 h, dose level Low): 1 g
KIDNEY_TOTAL (10 mg/kg, 3 h, dose level Low): 2 g
LIVER (10 mg/kg, 3 h, tissue Liver, dose level Low): 10.5 g
ALP (10 mg/kg, 3 h, dose level Low): 973.8 IU/L
ALT (10 mg/kg, 3 h, dose level Low): 36.8 IU/L
AST (10 mg/kg, 3 h, dose level Low): 65.4 IU/L
BUN (10 mg/kg, 3 h, dose level Low): 13.2 mg/dL
CRE (10 mg/kg, 3 h, dose level Low): 0.5 mg/dL
Ca (10 mg/kg, 3 h, dose level Low): 11.2 mg/dL
DBIL (10 mg/kg, 3 h, dose level Low): 0.016 mg/dL
GLC (10 mg/kg, 3 h, dose level Low): 205.6 mg/dL
IP (10 mg/kg, 3 h, dose level Low): 10.7 mg/dL
K (10 mg/kg, 3 h, dose level Low): 5.1 meq/L
LDH (10 mg/kg, 3 h, dose level Low): 95 IU/L
Na (10 mg/kg, 3 h, dose level Low): 139.4 meq/L
PL (10 mg/kg, 3 h, dose level Low): 140.2 mg/dL
RALB (10 mg/kg, 3 h, dose level Low): 3.7 g/dL
TBIL (10 mg/kg, 3 h, dose level Low): 0.3 mg/dL
TC (10 mg/kg, 3 h, dose level Low): 76.8 mg/dL
TG (10 mg/kg, 3 h, dose level Low): 69.2 mg/dL
TP (10 mg/kg, 3 h, dose level Low): 5.3 g/dL
gamma-GTP (10 mg/kg, 3 h, dose level Low): 0.8 IU/L
TERMINAL_BW (10 mg/kg, 6 h, dose level Low): 214.5 g
APTT (10 mg/kg, 6 h, dose level Low): 16.8 s
Bas (10 mg/kg, 6 h, dose level Low): 0%
Eos (10 mg/kg, 6 h, dose level Low): 1%
Fbg (10 mg/kg, 6 h, dose level Low): 210.6 mg/dL
Hb (10 mg/kg, 6 h, dose level Low): 13.1 g/dL
Ht (10 mg/kg, 6 h, dose level Low): 39%
Lym (10 mg/kg, 6 h, dose level Low): 78.8%
MCH (10 mg/kg, 6 h, dose level Low): 22 pg
MCHC (10 mg/kg, 6 h, dose level Low): 33.5%
MCV (10 mg/kg, 6 h, dose level Low): 65.8 fL
Mono (10 mg/kg, 6 h, dose level Low): 8.6%
Neu (10 mg/kg, 6 h, dose level Low): 12%
PT (10 mg/kg, 6 h, dose level Low): 12.2 s
Plat (10 mg/kg, 6 h, dose level Low): 109 x10_4/uL
RBC (10 mg/kg, 6 h, dose level Low): 593 x10_4/ul
Ret (10 mg/kg, 6 h, dose level Low): 8.6%
WBC (10 mg/kg, 6 h, dose level Low): 129.7 x10_2/uL
KIDNEY_L (10 mg/kg, 6 h, dose level Low): 1 g
KIDNEY_R (10 mg/kg, 6 h, dose level Low): 1 g
KIDNEY_TOTAL (10 mg/kg, 6 h, dose level Low): 2 g
ALP (10 mg/kg, 6 h, dose level Low): 779.8 IU/L
ALT (10 mg/kg, 6 h, dose level Low): 27.6 IU/L
AST (10 mg/kg, 6 h, dose level Low): 62.4 IU/L
BUN (10 mg/kg, 6 h, dose level Low): 11.8 mg/dL
CRE (10 mg/kg, 6 h, dose level Low): 0.5 mg/dL
Ca (10 mg/kg, 6 h, dose level Low): 10.8 mg/dL
DBIL (10 mg/kg, 6 h, dose level Low): 0.022 mg/dL
GLC (10 mg/kg, 6 h, dose level Low): 192.4 mg/dL
IP (10 mg/kg, 6 h, dose level Low): 10.2 mg/dL
K (10 mg/kg, 6 h, dose level Low): 4.9 meq/L
LDH (10 mg/kg, 6 h, dose level Low): 94 IU/L
Na (10 mg/kg, 6 h, dose level Low): 138.8 meq/L
PL (10 mg/kg, 6 h, dose level Low): 136.4 mg/dL
RALB (10 mg/kg, 6 h, dose level Low): 3.7 g/dL
TBIL (10 mg/kg, 6 h, dose level Low): 0.4 mg/dL
TC (10 mg/kg, 6 h, dose level Low): 71.6 mg/dL
TG (10 mg/kg, 6 h, dose level Low): 60.2 mg/dL
TP (10 mg/kg, 6 h, dose level Low): 5.4 g/dL
